Source: article PMC7140380, “Magnolia extract is effective for the chemoprevention of oral cancer through its ability to inhibit mitochondrial respiration at complex I” (Cell Communication and Signaling : CCS, 2020)
pIC50: −log10 of the molar value. Read-outs that look alike come from different tables or passages of the source.

Columns and labels:
[1] = test system: CAL 27 cells; assay: Cell proliferation assay (IncuCyte real-time cell confluence); type: cell-based; details: Homo sapiens
Method: Cells were seeded in 96-well tissue culture plates at 1000–3000 cells per well. Twenty-four hours after seeding, cells were exposed to various concentrations of ME, whereas control cells received fresh medium with an equivalent amount of dimethyl sulfoxide (DMSO) vehicle. Plates were incubated at 37 °C under 5% CO2 and monitored using the IncuCyte Live Cell analysis system (Essen Bioscience, Ann Arbor, MI). […] All assays were performed in triplicate or quadruplicate.

[2] = test system: STAT3; assay: Western blot, STAT3 phosphorylation in CAL 27 cells; type: cell-based, human; details: single agents at concentrations close to their IC50 (HNK 20 μM, MGN 40 μM, MHNK 20 μM)
Method: (§1) CAL 27 cells were treated with vehicle control (DMSO), HNK (20 μM), MGN (40 μM), and MHNK (20 μM) for 4 h and then lysed with a lysis buffer containing a proteinase inhibitor cocktail (Cell Signaling Technology, Danvers, MA), sheared 10 times by passage through a 28-gauge needle, and centrifuged at 16,000 g for 30 min; the protein concentration of the supernatant was determined by the Bradford method. Lysates, normalized for equal protein loading, were analyzed by the PathScan RTK Signaling Array (Cell Signaling Technology, Danvers, MA) and the LI-COR Odyssey infrared imaging system (LI-COR Biosciences-Biotechnology, Lincoln, NE).
(§2) Cells were lysed with RIPA buffer containing a proteinase inhibitor cocktail (Fisher Scientific, Pittsburg, PA), sheared 10 times by passage through a 28-gauge needle, and centrifuged at 16,000 g for 30 min; the supernatants were normalized for protein concentration as determined by the Bradford method. Lysates were boiled for 5 min and resolved on 4–12% sodium dodecyl sulfate polyacrylamide gel electrophoresis (SDS-PAGE) gels (Invitrogen, Carlsbad, CA). The blots were probed with the following primary antibodies from Cell Signaling Technology (Danvers, MA): p-STAT3-Tyr705, p-STAT3-Ser727, HKII, P70, and P70S6K. The following antibodies were from Santa Cruz Biotechnology (Dallas, TX): anti-actin, anti-Prx1 and anti-Prx3.

[3] = test system: p70S6K; assay: Western blot, p70S6K phosphorylation in CAL 27 cells; type: cell-based, human; details: single agents at concentrations close to their IC50 (HNK 20 μM, MGN 40 μM, MHNK 20 μM)
Method: as §1, §2

[4] = test system: hexokinase II (HKII); assay: Western blot, HKII levels in CAL 27 cells; type: cell-based, human; details: single agents at concentrations close to their IC50 (HNK 20 μM, MGN 40 μM, MHNK 20 μM)
Method: as §1, §2

[5] = test system: 4NQO-induced oral cancer; assay: 4NQO-induced oral carcinogenesis in C57BL/6 J mice; type: in vivo; details: 20 mg/kg oral
Method: Oral tumors were induced by exposing mice to 4NQO at a dose of 50 μg/mL in drinking water for 16 consecutive weeks. One week following the first dose of 4NQO, mice were given ME or the individual active components in ME via oral administration (five days/week for the next 20 consecutive weeks). Animal body weights and 4NQO-water consumption were monitored weekly. 21 weeks after the start of 4NQO treatment, mice were imaged by MRI. Mice were euthanized and oral tissues were collected to assess total oral tumor volume (sum of V) for each mouse. A portion of normal appearing tissue and oral tumor from each mouse were flash frozen in liquid nitrogen for molecular analysis. Remaining oral tissues were embedded in paraffin for pathologic analysis as previously described and for immunohistochemistry (IHC) analysis of biomarkers. In addition, the oral cavity, esophagus, stomach/forestomach, lung, and other major organs were examined carefully for any signs of abnormality.
Mice were imaged using a 9.4 T MRI (Bruker, Billerica, MA) with a custom birdcage style Quadrature coil (Doty Scientific, Columbia, SC). Mice were anesthetized (2 min) initially in a chamber using a mixture of oxygen (3 L/min) and isofluorane (4%). Once an animal was fully anesthetized, optical lubricant was placed on each eye to prevent drying. […]

[6] = CAL-27, read-out: IC50 as single agents, cell proliferation

Row | SMILES | pIC50 ([1]; CAL 27 cells, single agents, read-out: IC50 as single agents, cell proliferation) | phosphorylation of STAT3 (p-STAT3 Ser727) [2] | pIC50 [1, 6] | phosphorylation of p70S6K [3] | levels of hexokinase II (HKII) [4] | suppression of 4NQO-induced oral tumors as sole agent, compared with the other single agents [5]
1 | C=CCc1ccc(O)c(-c2ccc(O)c(CC=C)c2)c1 [HNK, 5,3′-diallyl-2,4′-dihydroxybiphenyl] | 4.72 | inhibited |  |  |  | 
2 | C=CCc1ccc(O)c(-c2cc(CC=C)ccc2O)c1 [MGN, 5,5′-diallyl-2,2′-dihydroxybiphenyl] |  |  | 4.31 | inhibited |  | 
3 | C=CCc1ccc(O)c(-c2ccc(OC)c(CC=C)c2)c1 [MHNK, 3,5′-diallyl-2′-hydroxy-4-methoxybiphenyl] |  |  | 4.72 |  | decreased | greatest effect
